pIC50: −log10 of the molar value.

The experiment deals with AKT1 (Homo sapiens (Human), UniProt P31749). Briefly: Inactive Akt HTRF Assay (AKT1). The note with it: *labeled: Akt HTFR assay; read-out: AKT1 biochemical assay, IC50. Here is the method: AKT1 activity was assayed using CisBio KinEASE™ HTRF Assay technology. This technology utilizes a proprietary biotinylated peptide substrate (STKS3), streptavidin labeled XL665 antibody, and STK antibody-Eu^3+-cryptate. AKT1 activation was achieved by the addition of the activating kinases PDK1 and MAPKAPK2, lipid vesicles, and ATP. The extent of STKS3 biotinylated peptide phosphorylation was determined using a phospho-STK antibody-Eu^3+-cryptate and streptavidin labeled XL665 antibody. XL665 was stimulated by Eu^3+-cryptate resulting in a TR-FRET signal proportional to the STKS3 phosphorylation level.
AKT1, sequence (P31749 whole entry): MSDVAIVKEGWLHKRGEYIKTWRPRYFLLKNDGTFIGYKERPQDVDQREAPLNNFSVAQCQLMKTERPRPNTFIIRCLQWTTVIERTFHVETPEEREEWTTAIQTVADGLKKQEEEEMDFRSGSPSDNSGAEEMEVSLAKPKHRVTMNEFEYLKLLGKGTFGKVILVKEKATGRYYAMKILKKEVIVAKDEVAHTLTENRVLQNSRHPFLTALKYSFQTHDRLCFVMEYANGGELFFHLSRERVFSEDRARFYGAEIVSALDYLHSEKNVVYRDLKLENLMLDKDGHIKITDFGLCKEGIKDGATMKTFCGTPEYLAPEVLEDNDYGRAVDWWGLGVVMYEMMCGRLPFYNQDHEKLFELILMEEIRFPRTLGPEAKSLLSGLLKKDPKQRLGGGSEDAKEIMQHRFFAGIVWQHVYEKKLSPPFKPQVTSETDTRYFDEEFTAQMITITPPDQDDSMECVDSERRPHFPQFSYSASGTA
Representative compounds of the invention and controls ((S)-1-((5-(3-methyl-1H-indazol-5-yl)pyridin-3-yl)oxy)-3-phenylpropan-2-amine, 1-(1-(4-(7-phenyl-1H-imidazo[4,5-g]quinoxalin-6-yl)benzyl)piperidin-4-yl)-1H-benzo[d]imidazol-2(3H)-one, and 8-(4-(1-aminocyclobutyl)phenyl)-9-phenyl-[1,2,4]triazolo[3,4-f][1,6]naphthyridin-3(2H)-one) were prepared in 10% DMSO at 10-fold the desired final concentration, and added to each well of a reaction plate (Corning 96-well half-area solid black nonbinding surface plate) in a volume of 2.5 μL. […] After a 20 minute pre-incubation at room temperature, the kinase reaction was initiated by the addition of 5 μL of an activation mixture diluted in assay buffer containing biotinylated STKS3, PDK1, MAPKAPK2, DOPS/DOPC, PtdIns(3,4,5)P3, and ATP for final concentrations of 150 nM biotinylated STKS3, 1 nM (AKT1), 2.5 nM (AKT2), or 0.4 nM (AKT3) PDK1, 0.8 nM (AKT1), 2 nM (AKT2), or 0.3 nM (AKT3) MK2, 5.5 μM DOPS, 5.5 μM DOPC, 0.5 μM PtdIns(3,4,5)P3, and 50 μM ATP. The plates were incubated for 30 minutes at room temperature, and then stopped by the addition of 25 μL HTRF Detection Buffer containing phospho-STK antibody-Eu^3+-cryptate and streptavidin labeled XL665 antibody, at dilutions of 1:192 and 1:500 respectively. Final assay dilutions of phospho-STK antibody-Eu^3+-cryptate and streptavidin labeled XL665 antibody were 1:384 and 1:1,000 respectively. Assay plates were incubated for 60 minutes at room temperature, and the plates were read on a Perkin Elmer Envision Multilabel plate reader (excitation: 320 nm, emission I: 665 nm, emission II: 615 nm).
(Time-resolved FRET reads energy transfer from a long-lived donor to a nearby acceptor.)
Broadly, the pIC50 is −log10 of the IC50, conventionally taken in molar units. Turning to `O=C(c1ccc(-c2nnc3n2-c2cccnc2Nc2ccccc2-3)cc1)N1CCNCC1` [Example 209, (4-(9H-benzo[f]pyrido[2,3-b][1,2,4]triazolo[4,3-d][1,4]diazepin-3-yl)phenyl)(piperazin-1-yl)methanone], the pIC50 was 4.77.
In the case of `CC(C)(C)OC(=O)NCCc1ccc(-c2nnc3n2-c2cccnc2Nc2ccccc2-3)cc1` [Example 212, tert-butyl 4-(9H-benzo[f]pyrido[2,3-b][1,2,4]triazolo[4,3-d][1,4]diazepin-3-yl)phenethylcarbamate], the pIC50 is 5.37.
For `NCCc1ccc(-c2nnc3n2-c2cccnc2Nc2ccccc2-3)cc1` [Example 214, 2-(4-(9H-benzo[f]pyrido[2,3-b][1,2,4]triazolo[4,3-d][1,4]diazepin-3-yl)phenyl)ethanamine], the negative-log IC50 (pIC50) is 4.85.
As for `CC(C)(C)OC(=O)NCc1ccc(-c2nnc3n2-c2cccnc2Nc2ccccc2-3)cc1` [Example 213, tert-butyl 4-(9H-benzo[f]pyrido[2,3-b][1,2,4]triazolo[4,3-d][1,4]diazepin-3-yl)benzylcarbamate], the negative-log IC50 (pIC50) was 4.85.
`CC(C)(C)OC(=O)N1CCN(C(=O)c2ccc(-c3nnc4n3-c3cccnc3Nc3ccccc3-4)cc2)CC1` [Example 208, tert-butyl 4-(4-(9H-benzo[f]pyrido[2,3-b][1,2,4]triazolo[4,3-d][1,4]diazepin-3-yl)benzoyl)piperazine-1-carboxylate]: the pIC50 is 4.39.
On to `COc1cccc(C(=O)NC2CCN(Cc3ccc(-c4nnc5n4-c4cccnc4Nc4ccccc4-5)cc3)CC2)c1` [Example 215, N-(1-(4-(9H-benzo[f]pyrido[2,3-b][1,2,4]triazolo[4,3-d][1,4]diazepin-3-yl)benzyl)piperidin-4-yl)-3-methoxybenzamide], for which the negative-log IC50 (pIC50) was 5.12.
Take `NC1CCN(C(=O)c2ccc(-c3nnc4n3-c3cccnc3Nc3ccccc3-4)cc2)CC1` [Example 211, (4-(9H-benzo[f]pyrido[2,3-b][1,2,4]triazolo[4,3-d][1,4]diazepin-3-yl)phenyl)(4-aminopiperidin-1-yl)methanone]: the pIC50 was 4.15.
With `CC(C)(C)OC(=O)NC1CCN(C(=O)c2ccc(-c3nnc4n3-c3cccnc3Nc3ccccc3-4)cc2)CC1` [Example 210, tert-butyl (1-(4-(9H-benzo[f]pyrido[2,3-b][1,2,4]triazolo[4,3-d][1,4]diazepin-3-yl)benzoyl)piperidin-4-yl)carbamate] the figure was 4.25.
